Results on 26 compounds are retold here after ChEMBL document CHEMBL4342421, “Current scenario of tetrazole hybrids for antibacterial activity” (Eur J Med Chem, 2019).

The test system of assay [1] is Escherichia coli. Nature of the assay: Antimicrobial activity against Escherichia coli assessed as zone of inhibition at 50 ug/ml. To be noted: read-out: IZ. The class given is functional.
The test system of assay [2] is Staphylococcus aureus. Nature of the assay: Antimicrobial activity against Staphylococcus aureus assessed as zone of inhibition at 50 ug/ml. It is filed as functional. To be noted: read-out: IZ.
The subject of assay [3] is Candida albicans. Nature of the assay: Antifungal activity against Candida albicans assessed as zone of inhibition at 50 ug/ml. To be noted: read-out: IZ. It is filed as functional.
Assay [4] has as its system Pseudomonas aeruginosa. Nature of the assay: Antimicrobial activity against Pseudomonas aeruginosa assessed as zone of inhibition at 50 ug/ml. It is filed as functional. To be noted: read-out: IZ.
Assay [5] deals with Bacillus subtilis. Nature of the assay: Antimicrobial activity against Bacillus subtilis assessed as zone of inhibition at 50 ug/ml. The note with it: read-out: IZ. The class given is functional.
Assay [6] concerns Aspergillus fumigatus. Nature of the assay: Antifungal activity against Aspergillus fumigatus assessed as zone of inhibition at 50 ug/ml. The class given is functional. The note with it: read-out: IZ.
The test system of assay [7] is Staphylococcus aureus. Nature of the assay: Antimicrobial activity against Staphylococcus aureus assessed as zone of inhibition at 250 ug/ml. It is filed as functional. The note with it: read-out: IZ.
The test system of assay [8] is Bacillus cereus. Nature of the assay: Antimicrobial activity against Bacillus cereus assessed as zone of inhibition at 250 ug/ml. It is filed as functional. The note with it: read-out: IZ.
In assay [9] the test system is Escherichia coli. Nature of the assay: Antimicrobial activity against Escherichia coli assessed as zone of inhibition at 250 ug/ml. It is filed as functional. To be noted: read-out: IZ.
The test system of assay [10] is Pseudomonas aeruginosa. Nature of the assay: Antimicrobial activity against Pseudomonas aeruginosa assessed as zone of inhibition at 250 ug/ml. The class given is functional. The note with it: read-out: IZ.
Assay [11] deals with Candida albicans. Nature of the assay: Antifungal activity against Candida albicans assessed as zone of inhibition at 250 ug/ml. It is filed as functional. The note with it: read-out: IZ.
The subject of assay [12] is Aspergillus niger. Nature of the assay: Antifungal activity against Aspergillus niger assessed as zone of inhibition at 250 ug/ml. The class given is functional. To be noted: read-out: IZ.
For assay [13], the system named is Escherichia coli. Nature of the assay: Antimicrobial activity against Escherichia coli. It is filed as functional.
Assay [14] concerns Bacillus subtilis. Nature of the assay: Antimicrobial activity against Bacillus subtilis. The class given is functional.
The subject of assay [15] is Salmonella typhimurium. Nature of the assay: Antimicrobial activity against Salmonella typhimurium. To be noted: Salmonella enterica. The class given is functional, Salmonella enterica subsp. enterica serovar Typhimurium.
The subject of assay [16] is Staphylococcus aureus. Nature of the assay: Antimicrobial activity against Staphylococcus aureus. The class given is functional.
Assay [17] relates to Candida albicans. Nature of the assay: Antifungal activity against Candida albicans. It is filed as functional.

Each structure is given as a SMILES string. In brackets after ≈: the same amount, converted by molar mass.

Regarding `O=[N+]([O-])c1ccc(-n2nnnc2-c2cccnc2)cc1`, the zone of inhibition at 50 µg/mL in assay [1], in assay [2], in assay [3], in assay [4], in [5] and in [6] was 10 to 22 mm throughout.
As for `O=[N+]([O-])c1cc(-c2nnnn2-c2ccccn2)cc([N+](=O)[O-])c1`, the zone of inhibition at 50 µg/mL in assay [1], in assay [2], in assay [3], in [4], in assay [5] and in [6] was 10 to 24 mm throughout.
With `COc1ccc(-c2nnnn2-c2ccccn2)cc1`, the zone of inhibition at 50 µg/mL in assay [1], in assay [2], in [3], in [4], in assay [5] and in assay [6] was 16 to 24 mm each time.
`COc1ccccc1-n1nnnc1-c1cccnc1`: the zone of inhibition at 50 µg/mL in assay [1], in assay [2], in assay [3], in assay [4], in [5] and in assay [6] was 10 to 22 mm throughout.
With `c1ccc(-n2nnnc2-c2cccnc2)cc1`, the zone of inhibition at 50 µg/mL in assay [1], in assay [2], in assay [3], in assay [4], in assay [5] and in assay [6] was 10 to 22 mm each time.
Turning to `CC(=O)N1N=C(Cn2cc(-c3nn(-c4ccncc4)cc3-c3nnnn3-c3ccc([N+](=O)[O-])cc3)c3cc(Cl)ccc32)OC1(C)c1ccc(C(F)(F)F)cc1` (configuration not stated), the zone of inhibition at 250 µg/mL in assay [7], in assay [8], in [9], in assay [10], in [11] and in assay [12] was 8 to 20 mm each time.
As usually defined, the MIC is the smallest concentration in the dilution series that meets the test's criterion for growth inhibition. Read a high MIC as weaker potency. Regarding `O=C(N[C@H](CO)[C@H](O)c1ccc([N+](=O)[O-])cc1)C(Cl)Cl` [CHLORAMPHENICOL], the minimal inhibitory concentration (MIC) in [13], in [14] and in assay [15] was 30 µg/mL (≈ 92.8 µM) throughout.
Regarding `Brc1cccc(-c2nnnn2-c2ccccn2)c1`, the zone of inhibition at 50 µg/mL in assay [1], in assay [2], in [3], in [4], in assay [5] and in assay [6] was 10 to 24 mm each time.
As for `Cc1ccc(-n2nnnc2-c2cccnc2)cc1`, the zone of inhibition at 50 µg/mL in assay [1], in [2], in [3], in assay [4], in [5] and in [6] was 10 to 22 mm throughout.
Consider `Cc1ccc(-c2nnnn2-c2ccccn2)cc1`, for which the zone of inhibition at 50 µg/mL in assay [1], in [2], in assay [3], in [4], in assay [5] and in assay [6] was 10 to 24 mm each time.
Regarding `CC(=O)N1N=C(Cn2cc(-c3nn(-c4ccncc4)cc3-c3nnnn3-c3ccc(Br)cc3)c3cc(Cl)ccc32)OC1(C)c1ccc(C(F)(F)F)cc1` (configuration not stated), the zone of inhibition at 250 µg/mL in [7], in assay [8], in [9], in assay [10], in [11] and in assay [12] was 8 to 20 mm throughout.
On to `Clc1ccccc1-c1nnnn1-c1ccccn1`, for which the zone of inhibition at 50 µg/mL in [1], in [2], in [3], in assay [4], in assay [5] and in [6] was 10 to 24 mm throughout.
Regarding `Clc1ccc(-n2nnnc2-c2cccnc2)cc1`, the zone of inhibition at 50 µg/mL in [1], in assay [2], in assay [3], in assay [4], in assay [5] and in assay [6] was 10 to 22 mm each time.
`Clc1cccc(-n2nnnc2-c2cccnc2)c1Cl`: the zone of inhibition at 50 µg/mL in [1], in [2], in [3], in assay [4], in assay [5] and in [6] was 10 to 22 mm each time.
Turning to `COc1ccc(-n2nnnc2-c2cn(-c3ccncc3)nc2-c2cn(CC3=NN(C(C)=O)C(C)(c4ccc(C(F)(F)F)cc4)O3)c3ccc(Cl)cc23)cc1` (configuration not stated), the zone of inhibition at 250 µg/mL in assay [7], in assay [8], in assay [9], in [10], in assay [11] and in assay [12] was 8 to 20 mm each time.
Consider `CC(=O)N1N=C(Cn2cc(-c3nn(-c4ccncc4)cc3-c3nnnn3-c3ccc(Cl)cc3)c3cc(Cl)ccc32)OC1(C)c1ccc(C(F)(F)F)cc1` (configuration not stated), for which the zone of inhibition at 250 µg/mL in assay [7], in [8], in assay [9], in assay [10], in [11] and in assay [12] was 8 to 20 mm throughout.
Regarding `CCCCCC(O)C(C(CCCCCCC(=O)OCCn1c([N+](=O)[O-])cnc1C)n1nnnc1C)n1nnnc1C` (configuration not stated), the minimal inhibitory concentration (MIC) in assay [13] was 26 µg/mL (≈ 45.2 µM); in assay [16], 72 µg/mL (≈ 125 µM); in assay [14], 24 to 76 µg/mL (≈ 41.7 to 132 µM); in [15] it was 34 µg/mL (≈ 59.1 µM); in [17] it was 124 µg/mL (≈ 215 µM).
For the compound `c1ccc(-c2nnnn2-c2ccccn2)cc1`, the zone of inhibition at 50 µg/mL in assay [1], in assay [2], in assay [3], in assay [4], in assay [5] and in [6] was 10 to 24 mm each time.
Take `Clc1ccccc1-n1nnnc1-c1cccnc1`: the zone of inhibition at 50 µg/mL in [1], in assay [2], in [3], in [4], in assay [5] and in assay [6] was 10 to 22 mm in each case.
Consider `Clc1cccc(-c2nnnn2-c2ccccn2)c1Cl`, for which the zone of inhibition at 50 µg/mL in [1], in assay [2], in [3], in assay [4], in [5] and in assay [6] was 10 to 24 mm each time.
As to `Clc1ccc(-c2nnnn2-c2ccccn2)cc1`, the zone of inhibition at 50 µg/mL in [1], in assay [2], in [3], in assay [4], in assay [5] and in assay [6] was 10 to 24 mm throughout.
Consider `Brc1ccc(-n2nnnc2-c2cccnc2)cc1`, for which the zone of inhibition at 50 µg/mL in [1], in assay [2], in [3], in [4], in assay [5] and in [6] was 10 to 22 mm throughout.
Turning to `CC(=O)N1N=C(Cn2cc(-c3nn(-c4ccncc4)cc3-c3nnnn3-c3ccccc3)c3cc(Cl)ccc32)OC1(C)c1ccc(C(F)(F)F)cc1` (configuration not stated), the zone of inhibition at 250 µg/mL in [7], in assay [8], in assay [9], in [10], in [11] and in [12] was 8 to 20 mm in each case.
In the case of `CC(=O)N1N=C(Cn2cc(-c3nn(-c4ccncc4)cc3-c3nnnn3-c3ccc(C)cc3)c3cc(Cl)ccc32)OC1(C)c1ccc(C(F)(F)F)cc1` (configuration not stated), the zone of inhibition at 250 µg/mL in assay [7], in assay [8], in [9], in assay [10], in assay [11] and in [12] was 8 to 20 mm each time.
With `O=[N+]([O-])c1ccccc1-n1nnnc1-c1cccnc1`, the zone of inhibition at 50 µg/mL in assay [1], in assay [2], in assay [3], in assay [4], in assay [5] and in assay [6] was 10 to 22 mm in each case.
For the compound `COc1ccc(-n2nnnc2-c2cccnc2)cc1`, the zone of inhibition at 50 µg/mL in assay [1], in assay [2], in assay [3], in assay [4], in assay [5] and in assay [6] was 10 to 22 mm in each case.
